Data on 22 molecules can be found in US20090099243A1, “ORGANIC COMPOUNDS” (priority 2007, published 2009).

In one assay the target is T1, recombinant human NPY Y2 receptors (Homo sapiens, UniProt P49146).
T1 construct: expressed in transfected cells; host or cells: CHO-C4 cells (membrane preparation)
T1 sequence (P49146 1-381): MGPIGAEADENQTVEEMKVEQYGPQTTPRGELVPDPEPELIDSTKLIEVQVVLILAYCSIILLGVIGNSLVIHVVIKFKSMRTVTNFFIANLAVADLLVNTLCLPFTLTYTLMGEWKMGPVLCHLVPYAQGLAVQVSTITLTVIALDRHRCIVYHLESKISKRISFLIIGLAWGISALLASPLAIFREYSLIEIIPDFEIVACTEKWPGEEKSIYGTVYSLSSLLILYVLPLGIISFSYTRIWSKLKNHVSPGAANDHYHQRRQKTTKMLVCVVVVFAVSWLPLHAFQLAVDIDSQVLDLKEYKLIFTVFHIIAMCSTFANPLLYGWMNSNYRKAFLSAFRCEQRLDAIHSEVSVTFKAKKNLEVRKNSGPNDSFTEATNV
Briefly: Scintillation proximity [35S]GTPγS binding assay (inhibition of 0.5 nM NPY-stimulated [35S]GTPγS binding). The assay is classed as biochemical. The settings on record: 10 μM compound, CHO-C4 membranes. How it is done:
Preparation of Membranes: CHO—C4 cells expressing recombinant human NPY Y2 receptors were used to prepare membranes for the GTPγS assay. Cells were grown to 80-95% confluency on 15-cm (225 cm^2) tissue culture plates. After aspiration of the culture medium, cells were washed twice with 18 ml ice-cold phosphate-buffered saline (PBS), scraped off and suspended in 3 ml ice-cold PBS in pre-cooled centrifuge tubes. The dishes were rinsed with 2 ml ice-cold PBS per dish and the washings were combined with the PBS cell suspension from above. Cells pooled from 5-7 dishes were centrifuged for 5 min at 10,000 rpm (12,000 g) in a Sorvall RC5B centrifuge using an SS34 rotor at 4° C. The cell pellet was resuspended in 5 ml ice-cold buffer (20 mM HEPES, 10 mM EDTA; pH 7.4) by vortexing (2-5 sec), homogenized using a Polytron (step 4 for 20-30 sec), and ice-cold buffer added to 25 ml. The suspension was centrifuged again for 20 min at 18,000 rpm (39,000 g) at 4° C. and the pellet resuspended in 5 ml ice-cold buffer (20 mM HEPES, 0.1 mM EDTA; pH 7.4) by vortexing (2-5 sec), homogenized with a Polytron (step 4 for 10 sec), and ice-cold buffer added to 25 ml. The suspension was centrifuged a third time for 20 min at 18,000 rpm (39,000 g) at 4° C. The pellet was resuspend in 1 ml ice-cold buffer (20 mM Hepes, 0.1 mM EDTA; pH 7.4) by vortexing (5-8 sec). Two to five resuspended pellets were combined and homogenized using a Polytron (step 4 for 15-25 sec). A small aliquot (20-50 μl) was removed for protein determination by the Coomassie Plus Protein Assay Reagent (Pierce) using BSA as standard. The membrane suspension was aliquoted in pre-cooled (on dry ice) Eppendorf tubes (0.25-1 ml/tube affording approximately 0.5-2 mg of membrane protein/tube). The pellets were frozen and stored at −80° C.
Scintillation proximity [^35S]GTPγS binding assay: Frozen membranes from CHO—C4 cells expressing recombinant human NPY Y2 receptors (2 mg for four 96-well plates) were thawed on ice. Thawed membranes were pipetted into 10 ml of assay buffer (20 mM. HEPES, 10 mM MgCl2, 100 mM NaCl, pH 7.4) and homogenized briefly using a Polytron. The final assay mixture was prepared in 96-well microtiter plates (Isoplate Wallac, Perkin Elmer). The composition of the assay mixtures in a final volume of 250 μl per well was as follows: 20 mM HEPES, 10 mM MgCl2, 100 mM NaCl, pH 7.4, 30 μM GDP, 1 mg/ml BSA (added fresh), 5 μg membrane protein, 1.5 mg Wheatgerm agglutinin SPA beads (Amersham), 0.45 nM [^35S]GTPγS (Amersham, SJ1308, 1000 Ci/mmol, stabilized solution), and the test compounds (agonists and/or antagonists) at the appropriate concentrations. The samples were incubated at room temperature for 90 min by shaking, after which the SPA beads were sedimented by centrifugation in an Eppendorf 5804 centrifuge at 2700 rpm for 10 min at room temperature. After 60 min the plates were counted in a TopCount (Canberra). Basal [^35S]GTPγS binding was measured in the absence of agonist (NPY). Non-specific binding was measured in the presence of excess (10 μM) unlabelled GTPγS (Sigma). Nonspecific binding never exceeded 10% of basal binding and was thus not subtracted from the experimental data. Antagonists were tested for the inhibition of 0.5 nM NPY-stimulated [^35S]GTPγS binding. Antagonist inhibition curves were analyzed by non-linear regression using GraphPad Prism software (Version 4.0, GraphPad Software Inc., CA, USA).
Antagonistic activity of compounds of the present invention was examined by the Scintillation proximity [35S]GTPγS binding assay as described above (inhibition of 0.5 nM NPY-stimulated [^35S]GTPγS binding). The table below represents percentages of inhibition at a concentration of 10 μM.
(In general: In a scintillation proximity assay essentially only radioactivity close to the scintillant gives light.)
For the molecule `COc1ccc(CC(=O)Nc2ccc(C(=O)CN3C(=O)NC(c4ccccc4)(c4ccc(C)cc4)C3=O)cc2)c(OC)c1` (racemic) [Example 41, (±)-2-2,4-Dimethoxy-phenyl)-N-{4-[2-(2,5-dioxo-4-phenyl-4-p-tolyl-imidazolidin-1-yl)-acetyl]-phenyl}-acetamide], the “[%] inhibiton at 10 μM” value amounted to 60%.
In the case of `CCCC1(c2ccccc2)NC(=O)N(CC(=O)c2ccc(NC(=O)C(CC)CC)cc2)C1=O` (single isomer, unassigned; (+)) [Example 32], the “[%] inhibiton at 10 μM” value stood at 90%.
With `CCCC1(c2ccccc2)NC(=O)N(CC(=O)c2ccc(NC(=O)Cc3c(C)noc3C)cc2)C1=O` (single isomer, unassigned; (-)) [Example 29], the “[%] inhibiton at 10 μM” value worked out at 99%.
Same read-out and setting: for `CCCC1(c2ccccc2)NC(=O)N(CC(=O)c2ccc(NC(=O)C(CC)CC)cc2)C1=O` (single isomer, unassigned; (-)) [Example 31] the value was 97%.
On the same count and under the same terms, next, `Cc1noc(C)c1CC(=O)Nc1ccc(C(=O)CN2C(=O)NC(c3ccccc3)(c3ccccc3)C2=O)cc1` [Example 27, 2-(3,6-Dimethyl-isoxazol-4-yl)-N-{4-[2-(2,5-dioxo-4,4-diphenyl-imidazolidin-1-yl)-acetyl]-phenyl}-acetamide]: 96%; `Cc1noc(C)c1NC(=O)Nc1ccc(C(=O)CN2C(=O)NC(c3ccccc3)(c3ccccc3)C2=O)c(F)c1` [Example 28, 1-(3,5-Dimethyl-isoxazolyl-4-yl)-3-{4-[2-(2,5-dioxo-4,4-diphenyl-imidazolidin-1-yl)-acetyl]-3-fluoro-phenyl}-urea]: 98%.

The same assay, now with this note: 10 μM compound, CHO-C4 membranes, read-out: [%] inhibiton at 10 μM.
Turning to `CCCC1(c2ccccc2)NC(=O)N(CC(=O)c2ccc(NC(=O)Nc3c(C)noc3C)cc2F)C1=O` (racemic) [Example 1, (±)-1-(3,5-Dimethyl-isoxazol-4-yl)-3-{4-[2-(2,5-dioxo-4-phenyl-4-propyl-imidazolidin-1-yl)-acetyl]-3-fluoro-phenyl}-urea], the inhibition at 10 µM was determined as 105%.
As for `CCC1(c2ccccc2)NC(=O)N(CC(=O)c2ccc(NC(=O)Nc3c(C)noc3C)cc2)C1=O` (racemic) [Example 2, (±)-1-(3,5-Dimethyl-isoxazol-4-yl)-3-{4-[2-(4-ethyl-2,5-dioxo-4-phenyl-imidazolidin-1-yl)-acetyl]-phenyl}-urea], the inhibition at 10 µM came to 98%.
Same read-out and setting: next, `CCCC1(c2ccccc2)NC(=O)N(CC(=O)c2ccc(NC(=O)CC(C)C)cc2F)C1=O` (racemic) [Example 5, (±)-N-{4-[2-(2,5-Dioxo-4-phenyl-4-propyl-imidazolidin-1-yl)-acetyl]-3-fluoro-phenyl}-3-methyl-butyramide]: 63%; `CCC1(c2ccccc2)NC(=O)N(CC(=O)c2ccc(NC(=O)CC(C)C)cc2F)C1=O` (racemic) [Example 13, (±)-N-{4-[2-(4-Ethyl-2,5-dioxo-4-phenyl-imidazolidin-1-yl)-acetyl]-3-fluoro-phenyl}-3-methyl-butyramide]: 78%; `Cc1ccc(C2(c3ccccc3)NC(=O)N(CC(O)c3ccc(NC(=O)CC(C)C)cc3)C2=O)cc1` (racemic) [Example 14, (±)-N-{4-[2-(2,5-Dioxo-4-phenyl-4-p-tolyl-imidazolidin-1-yl)-1-hydroxy-ethyl]-phenyl}-3-methyl-butyramide]: 58%.
Same read-out and setting: next, `CCC1(c2ccccc2)NC(=O)N(Cc2ccc(NC(=O)Nc3c(C)noc3C)cc2)C1=O` (racemic) [Example 19, (±)-1-(3,5-Dimethyl-isoxazol-4-yl)-3-[4-(4-ethyl-2,5-dioxo-4-phenyl-imidazolidin-1-ylmethyl)-phenyl]-urea]: 32%.
Still for that read-out and setting: for `CCCC1(c2ccccc2)NC(=O)N(CC(=O)c2ccc(NC(=O)Cc3c(C)noc3C)cc2)C1=O` (racemic) [Example 21, (±)-2-(3,5-Dimethyl-isoxazol-4-yl)-N-{4-[2-(2,5-dioxo-4-phenyl-4-propyl-imidazolidin-1-yl)-acetyl]-phenyl}-acetamide] the value was 97%.
For `CCCC1(c2ccccc2)NC(=O)N(CC(=O)c2ccc(NC(=O)C(CC)CC)cc2)C1=O` (racemic) [Example 24, (±)-N-{4-[2-(2,5-Dioxo-4-phenyl-4-propyl-imidazolidin-1-yl)-acetyl]-phenyl}-2-ethyl-butyramide], the inhibition at 10 µM worked out at 96%.
In the case of `Cc1ccc(C2(c3ccccc3)NC(=O)N(CC(=O)c3ccc(NC(=O)Nc4ccccc4F)cc3)C2=O)cc1` (racemic) [Example 39, (±)-1-{4-[2-(2,5-Dioxo-4-phenyl-4-p-tolyl-imidazolidin-1-yl)-acetyl]-phenyl}-3-(2-fluoro-phenyl)-urea], the inhibition at 10 µM is 44%.
On to `COc1ccccc1CC(=O)Nc1ccc(C(=O)CN2C(=O)NC(c3ccccc3)(c3ccc(C)cc3)C2=O)cc1` (racemic) [Example 40, (±)-N-{4-[2-(2,5-Dioxo-4-phenyl-4-p-tolyl-imidazolidin-1-yl)-acetyl]-phenyl}-2-(2-methoxy-phenyl)-acetamide], for which the inhibition at 10 µM is 70%.
Still for that read-out and setting: next, `Cc1ccc(C2(c3ccccc3)NC(=O)N(CC(=O)c3ccc(NC(=O)Cc4c(C)noc4C)cc3)C2=O)cc1` (racemic) [Example 42, (±)-2-(3,5-Dimethyl-isoxazol-4-yl)-N-{4-[2-(2,5-dioxo-4-phenyl-4-p-tolyl-imidazolidin-1-yl)-acetyl]-phenyl}-acetamide]: 99%; `CCCC1(c2ccccc2)NC(=O)N(CC(=O)c2ccc(NC(=O)Nc3ccccc3F)cc2)C1=O` (racemic) [Example 44, (±)-1-{4-[2-(2,5-Dioxo-4-phenyl-4-propyl-imidazolidin-1-yl)-acetyl]-phenyl}-3-(2-fluoro-phenyl)-urea]: 56%.
With `CC(C)CC(=O)Nc1ccc(C(=O)CN2C(=O)NC(c3ccccc3)(c3ccccc3)C2=O)c(F)c1` [Example 9, N-{4-[2-(2,5-Dioxo-4,4-diphenyl-imidazolidin-1-yl)-acetyl]-3-fluoro-phenyl}-3-methyl-butyramide], the inhibition at 10 µM came out at 83%.
Same read-out and setting: for `CCC(=O)Nc1ccc(C(=O)CN2C(=O)NC(c3ccc(F)cc3)(c3ccc(F)cc3)C2=O)cc1` [Example 12, N-(4-{2-[4,4-Bis-(4-fluoro-phenyl)-2,5-dioxo-imidazolidin-1-yl]-acetyl}-phenyl)-propionamide] the value was 42%; for `CCCC1(c2ccccc2)NC(=O)N(CC(=O)c2ccc(NC(=O)C3CCOC3)cc2)C1=O` (stereo not shown) [Example 22, Tetrahydro-furan-3-carboxylic acid {4-[2-(2,5-dioxo-4-phenyl-4-propyl-imidazolidin-1-yl)-acetyl]-phenyl}-amide], 83%.
As for `CCCC1(c2ccccc2)NC(=O)N(CC(=O)c2ccc(NC(=O)C3CCCN3)cc2)C1=O` (stereo not shown) [Example 23, Pyrrolidine-2-carboxylic acid {4-[2-(2,5-dioxo-4-phenyl-4-propyl-imidazolidin-1-yl)-acetyl]-phenyl}-amide], the inhibition at 10 µM was 36%.
